For the assay, the system named is Caco-2 cells. The assay can be described thus: Cholesterol efflux from cultured human cells (Caco-2, 3H-cholesterol, apoA-I). It counts as cell-based. The following applies: 24 h, mean of quadruplicate incubations. The protocol:
To assess the relevant biological activity of the LXR agonists, certain compounds were tested for their ability to increase cholesterol efflux from cultured human cells, as described by Sparrow et al., JBC, 277, 10021-10027, Mar. 22, 2002. Caco-2 cells, which are of human origin, were obtained from ATCC and grown in Opti-MEM (Gibco #51985-034) containing 10% FCS, non-essential amino acids (Gibco #11140-050), and vitamins (Gibco # 11120-052). Caco-2 cells were plated at 100,000 cells/well in 48-well plates. After four days the cells had reached confluence, and were then labeled with ^3H-cholesterol by incubation for 24 hours in fresh growth media containing ^3H-cholesterol (10 μCi/ml). Following labeling with ^3H-cholesterol, cells were washed and incubated an additional 24 hours in serum-free media containing 1 mg/ml BSA, to allow for equilibration of ^3H-cholesterol with intracellular cholesterol. Cholesterol efflux was initiated by adding 10 μg/ml apoA-I, with or without compound, in serum-free medium. Compounds were added to cell culture medium from DMSO solutions, and control cells received an equivalent amount of DMSO, never exceeding 0.1%. After 24 hours, media were harvested and cells dissolved in 0.1 M NaOH. Media were briefly centrifuged to remove non-adherent cells, and then aliquots of both the supernatants and the dissolved cells were subjected to liquid scintillation spectrometry to determine radioactivity. Cholesterol efflux is expressed as a percentage, calculated as (^3H-cholesterol in medium/(^3H-cholesterol in medium +^3H-cholesterol in cells))×100.
In general terms: Passage across Caco-2 layers is used to estimate intestinal permeability.

As to `CCCc1c(OCCCN(C)c2cnc(CC(=O)O)cn2)ccc2c(C(F)(F)F)noc12` [Example 25, {5-[methyl(3-{[7-propyl-3-(trifluoromethyl)-1,2-benzisoxazol-6-yl]oxy}propyl)amino]pyrazin-2-yl}acetic acid], the “% cholesterol efflux” value runs as follows: (compound concentration 10 nM) 3.4%; (compound concentration 30 nM) 4.4%; (compound concentration 100 nM) 4.3%; (compound concentration 300 nM) 6.6%; (compound concentration 1000 nM) 7.4%; (compound concentration 3000 nM) 7.7%.

With `CCCc1c(OCCCn2ccc3cc(CC(=O)O)c(Cl)cc32)ccc2c(C(F)(F)F)noc12` [Example 40, [6-chloro-1-(3-{[7-propyl-3-(trifluoromethyl)-1,2-benzisoxazol-6-yl]oxy}propyl)-1H-indol-5-yl]acetic acid], the “% cholesterol efflux” value by setting is: (compound concentration 10 nM) 4.9%; (compound concentration 30 nM) 5.2%; (compound concentration 100 nM) 5.9%; (compound concentration 300 nM) 6.3%; (compound concentration 1000 nM) 6.5%; (compound concentration 3000 nM) 7.7%.

These data come from US20060178398A1, “Therapeutic compounds for treating dyslipidemic conditions” (priority 2004, published 2006).
